Test results taken from US11203608B2, “Platinum-containing compounds, and related compositions and uses thereof” (Massachusetts Institute of Technology, priority 2019, dated 2021).

Experiments:
[1] = tested on: OVCAR8 human ovarian cancer cell line; test: Cell growth, resazurin assay, OVCAR8; format: cell-based; settings: 72-h exposure
Method: (§1) Cells were cultured in 10 mL of Advanced DMEM/F12 (ADMEM/F12), supplemented with 5% FBS, 2 mM GlutaMAX, and 1% Penicillin-Streptomycin in 10 cm tissue culture plates. Cells were then plated into 96-well plates with about 2.5×10^3 cells per well. Cells were plated with 200 μL per well of ADMEM/F12 supplemented with 5% FBS, 2 mM GlutaMAX, and 1% Penicillin-Streptomycin. Cells were treated with dose responses of doxorubicin, oxaliplatin, or doxaliplatin upon plating. The cells were then cultured for 72 hours following drug treatment, and cell growth was measured by resazurin assay.

[2] = tested on: PC3 human prostate adenocarcinoma; test: Cell growth, resazurin assay, PC3; format: cell-based; settings: 96-h exposure (table title)
Method: as §1

[3] = Solubility and stability in organic solvents (observed during NMR); format: physicochemical
Method: To a stirred solution of K2PtCl4 (41.5 mg, 0.100 mmol) in water (30 mL), a solution of 9 bis(trifluoroacetic acid) salt (77.0 mg, 0.100 mmol) in water (9 mL) was added in one portion. Red precipitate formed immediately. The reaction was stirred at room temperature for 24 h. To the same solution was added AgNO3 aq. solution (0.10 M, 4.0 mL). The reaction was stirred at room temperature for 24 h. To this mixture was then added K2C2O4 aq. solution (0.20 M, 0.50 mL). The reaction was stirred at room temperature for 24 h. The reaction mixture was lyophilized together with a small amount of C18-reversed phase silica gel. […] The multiplicity of some ^1H NMR signals were not determined due to overlap. […] Due to the relatively low concentration of 12 in […], only part of the ^13C NMR signals were detected through ^13C-^1H correlation experiments. The ^13C NMR signals of Conformer A detected by ^1H-^13C HSQC and ^1H-^13C HMBC spectroscopy: ^13C{^1H} NMR (101 MHz, DMSO-d6) δ 16.98, 31.68, 34.80, 37.89, 55.85, 56.35, 64.07, 65.27, 66.70, 68.15, 98.84, 118.56, 118.86, 134.84, 159.78. The ^13C NMR signals of Conformer B detected by ^1H-^13C HSQC and ^1H-^13C HMBC spectroscopy: ^13C{^1H} NMR (101 MHz, DMSO-d6) δ 17.24, 32.01, 36.73, 37.27, 56.13, 56.31, 63.56, 64.07, 68.53, 69.85, 99.05, 118.68, 118.84, 135.99, 160.62. ^195Pt NMR (86 MHz, DMSO-d6) δ−1989 (br). […]

[4] = tested on: A2780 human ovarian cancer cell line; test: Cell growth, resazurin assay, A2780; format: cell-based; settings: A2780, 72-h exposure
Method: as §1

[5] = tested on: OVCAR8-OXR oxaliplatin-resistant human ovarian cancer cell line; test: Cell growth, resazurin assay, OVCAR8-OXR; settings: 72-h exposure; for Fold Resistance (IC50, OVCAR8OXR vs OVCAR8): based on IC50 values
Method: Cells were cultured in 10 mL of Advanced DMEM/F12 (ADMEM/F12), supplemented with 5% FBS, 2 mM GlutaMAX, and 1% Penicillin-Streptomycin in 10 cm tissue culture plates. Cells were then plated into 96-well plates with about 2.5×10^3 cells per well. Cells were plated with 200 μL per well of ADMEM/F12 supplemented with 5% FBS, 2 mM GlutaMAX, and 1% Penicillin-Streptomycin. […] The cells were then cultured for 72 hours following drug treatment, and cell growth was measured by resazurin assay.

[6] = tested on: cisplatin-resistant A2780CIS human ovarian cancer cell line; test: Cell growth, resazurin assay, A2780CIS; format: cell-based; settings: 72-h exposure
Method: as §1

## COc1cccc2c1C(=O)c1c(O)c3c(c(O)c1C2=O)CC(O)(C(=O)CO)CC3OC1CC(N)C(N)C(C)O1.O=C1[O][Pt][O]C1=O (stereo not shown) [DoxPt, Doxaliplatin]
[1]
  IC50: 140 ± 10 nM
  IC80: 370 ± 20 nM
[2]
  IC50: 92 nM
[3]; DMF
  Solubility in DMF: low solubility
[3]; DMSO-d6
  Solubility in DMSO-d6: relatively high solubility
[4]
  IC50: 16 nM
  IC90: 380 nM
  IC95: 680 nM
[5]
  Fold Resistance (IC50, OVCAR8OXR vs OVCAR8): 1.0 fold
[5]; listed as doxaliplatin
  Fold Resistance (IC50, OVCAR8OXR vs OVCAR8): no change in the IC50 value
[5]; based on IC80 values
  Fold Resistance (IC80, OVCAR8OXR vs OVCAR8): 0.6 fold
[5]; read-out: IC50 OVCAR8OXR
  IC50: 140 ± 10 nM
[5]; read-out: IC80 OVCAR8OXR
  IC80: 230 ± 10 nM
[6]
  IC50: 280 nM
  IC90: 380 nM
  IC95: 410 nM
